Experimental data as given in US8906829B2, “Synergistic algicidal compositions including hydrazone derivatives and copper” (Dow AgroSciences LLC, priority 2010, dated 2014).
Each block holds one compound with its values, some of them ahead of it.

Tests used:
C. reinhardtii = test: Effect of copper on activity of metal-hydrazone complexes: growth inhibition of C. reinhardtii in TAP Cu minus / TAP Cu plus medium (Example 13); assay type: cell-based, Chlamydomonas reinhardtii; settings: for % Inhn. Minus Copper Observed / % Inhn. Plus Copper Observed: C. reinhardtii growth inhibition; for % Inhn. Minus Copper Observed: TAP Cu minus medium; for % Inhn. Plus Copper Observed / % Inhn. Plus Copper Predicted: TAP Cu plus medium; for % Inhn. Plus Copper Predicted: calculated by Colby formula from minus-copper result and inhibition by copper chloride alone
Experimental: In vitro toxicity assays against C. reinhardtii CC-1928 (wild type mt+137c green in dark subclone) obtained from the Chlamydomonas Resource Center at Duke University were conducted using TAP liquid growth medium described by Gorman and Levine Proc. Natl. Acad. Sci. USA 1965, 54, 1665-1669 except that CuSO4.5H2O, normally included as a component of Hutner's trace element stock solution (Hutner et al. Proc. Am. Philos. Soc. 1950, 94, 152-170), was omitted. The TAP medium lacking Cu (TAP Cu minus) was prepared by adding 400 mg NH4Cl, 10 mL of 100× Tris-Acetate (242 g Tris-base and 100 mL glacial acetic acid in 1000 mL milli Q water), and 8.3 mL of 120.5× phosphate buffer (14.34 g K2HPO4 and 7.26 g KH2PO4 in 1000 mL milli Q water) to milli Q water to make a total volume of 1 liter. The medium was treated with 0.5 g Chelex 100 resin (Bio-Rad Analytical grade, 50-100 mesh, sodium form, cat#142-2822) by stirring at room temperature for 1 hour. 900 mL were decanted and 45.9 mg of CaCl2.2H2O, 90 mg of MgSO4.7H2O and 0.9 mL Hutner's trace elements lacking CuSO4.5H2O were added and the solution was filter-sterilized. Medium containing copper (TAP Cu plus) was prepared by adding CuCl2.2H2O to the TAP Cu minus medium at 20 μM. Test compounds were dissolved in dimethylsulfoxide (DMSO) at 2 mg/mL then dilutions in TAP Cu minus and TAP Cu plus media were prepared in sterilized microcentrifuge tubes at 2 μg/mL. 100 μL aliquots of diluted compound were dispensed into flat-bottomed 96-well microtiter plates. C. reinhardtii was maintained under 12 h of light on TAP agar plates at 18° C. A loopful of cells was added to 50 mL of TAP Cu minus medium and the culture incubated with shaking at 200 rpm at 27° C. for 24 h. The culture (10 to 20 mL aliquot) was centrifuged in a bench centrifuge at 2000 rpm for 2 min. The resulting cell pellet was resuspended in 5 mL sterile milli Q water (which had been treated with Chelex 100 resin using 0.5 g resin per liter of water by stirring at room temperature for 1 h), and recentrifuged. The cells were resuspended in TAP Cu minus medium, and the suspension adjusted to 2×10^5 spores per mL. Microtiter plates containing compounds as described above were inoculated with 100 μL of this cell suspension and the plates incubated at 27° C. for 48 h before assessing algal growth by measuring light scattering in a NepheloStar plate-reader. Growth inhibition was determined by comparing growth in the presence of test compound with growth in control wells lacking test compound. The effect of copper on activity of metal-hydrazone complexes towards C. reinhardtii was evaluated by comparing their activity in TAP Cu minus and TAP Cu plus media as described in Example 10 (compound concentrations were selected which gave low inhibition in TAP Cu minus medium). Growth inhibition was determined by comparing growth in the presence of test compound with growth in control wells lacking test compound. Results for growth inhibition by test compounds in TAP Cu plus medium (% Inhn Plus Copper Observed) were compared with predicted values (% Inhn Plus Copper Predicted) that were calculated using the formula set forth by S. R. Colby in Weeds 1967, 15, 20-22 based on results obtained for the same compounds in TAP Cu minus medium (% Inhn Minus Copper Observed) and the inhibition attributed to copper chloride alone, as determined by comparing growth in TAP Cu minus and TAP Cu plus media without any test compound across experiments.

[1] = C. reinhardtii, test concn. 0.25 μg/mL
[2] = C. reinhardtii, test concn. 0.5 μg/mL

SMILES: CC(=O)[O-].CC(=O)[O-].O=C(N/N=C/c1cc(Cl)cc(Cl)c1O)c1ccccc1.[Cu+2] [Compound 72]
% Inhn. Minus Copper Observed (C. reinhardtii; test concn. 0.25 μg/mL): 79% | % Inhn. Plus Copper Observed (C. reinhardtii; test concn. 0.25 μg/mL): 83% | % Inhn. Plus Copper Predicted (C. reinhardtii; [1]): 66%

SMILES: CC(=O)[O-].CC(=O)[O-].O=C(N/N=C/c1cc(Cl)cc(Cl)c1O)c1ccccc1.O=C(N/N=C/c1cc(Cl)cc(Cl)c1O)c1ccccc1.[Cu+2] [Compound 73]
% Inhn. Minus Copper Observed (C. reinhardtii; test concn. 0.25 μg/mL): 23% | % Inhn. Plus Copper Observed (C. reinhardtii; test concn. 0.25 μg/mL): 87% | % Inhn. Plus Copper Predicted (C. reinhardtii; [1]): 10%

SMILES: O=C(N/N=C/c1cc(Cl)cc(Cl)c1O)c1ccccc1.O=C(N/N=C/c1cc(Cl)cc(Cl)c1O)c1ccccc1.O=S(=O)([O-])[O-].[Cu+2] [Compound 74]
% Inhn. Minus Copper Observed (C. reinhardtii; test concn. 0.25 μg/mL): −9% | % Inhn. Plus Copper Observed (C. reinhardtii; test concn. 0.25 μg/mL): 82% | % Inhn. Plus Copper Predicted (C. reinhardtii; [1]): −22%

SMILES: O=C(N/N=C/c1cc(Cl)cc(Cl)c1O)c1ccccc1.[Cl-].[Cl-].[Cu+2] [Compound 75]
% Inhn. Minus Copper Observed (C. reinhardtii; test concn. 0.25 μg/mL): 18% | % Inhn. Plus Copper Observed (C. reinhardtii; test concn. 0.25 μg/mL): 59% | % Inhn. Plus Copper Predicted (C. reinhardtii; [1]): 5%

SMILES: O=C(N/N=C/c1cc(Cl)cc(Cl)c1O)c1ccccc1.O=C(N/N=C/c1cc(Cl)cc(Cl)c1O)c1ccccc1.[Cl-].[Cl-].[Cu+2] [Compound 76]
% Inhn. Minus Copper Observed (C. reinhardtii; test concn. 0.5 μg/mL): 3% | % Inhn. Plus Copper Observed (C. reinhardtii; test concn. 0.5 μg/mL): 89% | % Inhn. Plus Copper Predicted (C. reinhardtii; [2]): −10%

SMILES: O=C(N/N=C/c1cc(Cl)cc(Cl)c1O)c1ccccc1.O=C(N/N=C/c1cc(Cl)cc(Cl)c1O)c1ccccc1.[Cl-].[Cl-].[Mn+2] [Compound 77]
% Inhn. Minus Copper Observed (C. reinhardtii; test concn. 0.5 μg/mL): −5% | % Inhn. Plus Copper Observed (C. reinhardtii; test concn. 0.5 μg/mL): 93% | % Inhn. Plus Copper Predicted (C. reinhardtii; [2]): −18%

SMILES: O=C(NN=Cc1cc(Cl)cc(Cl)c1O)c1ccccc1.O=C(NN=Cc1cc(Cl)cc(Cl)c1O)c1ccccc1.[Cl-].[Cl-].[Zn+2] [Compound 78]
% Inhn. Minus Copper Observed (C. reinhardtii; test concn. 0.5 μg/mL): −9% | % Inhn. Plus Copper Observed (C. reinhardtii; test concn. 0.5 μg/mL): 87% | % Inhn. Plus Copper Predicted (C. reinhardtii; [2]): −22%

SMILES: [Cl][Cu][Cl] [CuCl2, Copper chloride, reference compound]
% Inhn. attributed to copper chloride alone (C. reinhardtii; C. reinhardtii, CuCl2 10 μM, growth in TAP Cu plus vs TAP Cu minus medium without test compound, across experiments): −12.9%

Second part, the compound after the results:

melting point: 260 to 262 °C
SMILES: C/C(=N\NC(=O)c1ccc(Cl)cc1)c1cc(Cl)cc(Cl)c1O [Compound 12]

melting point: 249 to 252 °C
SMILES: O=C(N/N=C/c1ccc(Cl)c(Cl)c1O)c1ccccc1 [Compound 21]

melting point: 221 to 223 °C
SMILES: C/C(=N\NC(=O)c1cccc(C)c1)c1cc(Cl)cc(Cl)c1O [Compound 25, 3-methyl-benzoic acid [1-(3,5-dichloro-2-hydroxyphenyl)-ethylidene]-hydrazide]

melting point: 262 to 264 °C
SMILES: C/C(=N\NC(=O)c1ccc(C)cc1)c1cc(Cl)cc(Cl)c1O [Compound 26]

melting point: 225 to 226 °C
SMILES: O=C(N/N=C/c1cc(Cl)cc(C(F)(F)F)c1O)c1ccccc1 [Compound 27]

melting point: 233 to 236 °C
SMILES: O=C(N/N=C/c1cc(C(F)(F)F)cc(C(F)(F)F)c1O)c1ccc(Cl)cc1 [Compound 32]

melting point: 271 to 273 °C
SMILES: O=C(N/N=C/c1c(Cl)ccc(Cl)c1O)c1ccc(Cl)cc1 [Compound 45]

melting point: 257 to 260 °C
SMILES: O=C(N/N=C/c1cccc(Cl)c1O)c1ccc(Cl)cc1 [Compound 52]

melting point: 236 to 238 °C
SMILES: O=C(N/N=C/c1c(C(F)(F)F)ccc(Cl)c1O)c1ccc(Cl)cc1 [Compound 56]
